Test results: patent US9241939B2, “Combination of (a) a phosphoinositide 3-kinase inhibitor and (b) a modulator of RAS/RAF/MEK pathway” (Novartis AG, priority 2008, dated 2016)
Where two headings read alike, the source gives them in different places.

Legend:
[1] = test system: BN472 tumors; test: BN472 tumor model; type: in vivo; conditions: rat, weak and not significant
Procedure: FIG. 2: Rat bearing BN472 tumors were treated with the indicated compound at the indicated dose and schedule, either alone or in combination. Evolution of tumor growth were followed by callipering throughout the course of the study. *, P<0.05 (Dunnett's).
FIG. 3: Rat bearing BN472 tumors were treated with the indicated compound at the indicated dose and schedule, either alone or in combination. Evolution of body weight were followed throughout the course of the study. *, P<0.05 (Dunnett's).
In the BN472 tumor model administration of compound A at a dose of 10 mg/kg (p.o., 1q24h) or the Raf inhibitor Raf265 (at a dose of 2.5 mg/kg, po, […]) produced a weak and not significant antitumor activity (expressed as T/C) of either 83 and 76. The combination of compound A (10 mg/kg) with RAF265, however, produced a strong and statistically significant antitumor activity with a T/C of 34% (FIG. 2).

[2] = test system: Akt; p70S6K or ERK in A549 cells; test: Western-blotting of phosphorylated Akt, p70S6K and ERK; type: cell-based; conditions: incubated alone, 30 min, PD03251901 250 nM
Procedure: FIG. 1: A549 cells were incubated either with compound A, PD03251901 (250 nM) alone or in combination for 30 min. Cells were then harvested and estimation of phosphorylated levels of either Akt; p70S6K or ERK done by regular Western-blotting.

[3] = test system: A549 cells; test: standard methylene blue proliferation assay; type: cell-based
Procedure: The KRAS mutant NSCLC cell line was used in a standard methylene blue proliferation assay.
A549 cells were incubated with increasing amount of either compound A or PD0325901 (NVP-LBW624) alone or in combination, for 72 h and proliferation assessed with a standard methylene blue assay. The G150 were determined and CI quantified with the CalcuSyn software.

| SMILES | antitumor activity (expressed as T/C) ([1]; compound A 10 mg/kg p.o. 1q24h alone) | block of respective downstream effectors (ERK and Akt) [2] | GI50 ([3]; A549 cells, 72 h, compound A and PD0325901 (NVP-LBW624) in combination, read-out: GI50 (in nM) in combination) | Combination Index (CI) ([3]; A549 cells, 72 h, compound A with PD0325901 (NVP-LBW624), CalcuSyn software) | GI50 ([3]; Homo sapiens, A549, 72 h, A549 cells (KRAS mutant NSCLC), 72 h, single agent, read-out: GI50 (in nM) alone) | GI50 ([3]; Homo sapiens, A549, 72 h, A549 cells, 72 h, compound A and PD0325901 (NVP-LBW624) in combination, read-out: GI50 (in nM) in combination) | times less BEZ235 required for a similar decrease in proliferation ([3]; in presence of PD0325901) | GI50 ([3]; Homo sapiens, A549, 72 h, read-out: GI50 (in nM) alone) | GI50 ([3]; Homo sapiens, A549, 72 h, read-out: GI50 (in nM) in combination) | antitumor activity (expressed as T/C) ([1]; Raf265 2.5 mg/kg po q24h alone) |
| --- | --- | --- | --- | --- | --- | --- | --- | --- | --- | --- |
| Cn1c(=O)n(-c2ccc(C(C)(C)C#N)cc2)c2c3cc(-c4cnc5ccccc5c4)ccc3ncc21 [Compound A, 2-methyl-2-[4-(3-methyl-2-oxo-8-quinolin-3-yl-2,3-dihydro-imidazo[4,5-c]quinolin-1-yl)-phenyl]-propionitrile] | 83 | do block their respective downstream effectors | 4.46 nM | 0.718 | 9.41 nM | 3.2 nM | 3 times |  |  |  |
| O=C(NOC[C@H](O)CO)c1ccc(F)c(F)c1Nc1ccc(I)cc1F [PD0325901, reference compound] |  | do block their respective downstream effectors |  |  |  |  |  | 36.8 nM | 11.5 nM |  |
| Cn1c(Nc2ccc(C(F)(F)F)cc2)nc2cc(Oc3ccnc(-c4ncc(C(F)(F)F)[nH]4)c3)ccc21 [RAF265, reference compound] |  |  |  |  |  |  |  |  |  | 76 |
